From patent publication US11891386B2, “Indole compounds and their use” (ARIAGEN, INC., priority 2017, dated 2024)

Legend:
[1] = tested on: EMT-6 syngeneic mouse tumor model (breast cancer); assay: Anti-tumor activity, EMT-6 syngeneic mouse tumor model; type: in vivo; details: EMT6, 648 h, Study 2, EMT-6, 160 mpk, D27, read-out: TGI (tumor growth inhibition)
[2] = tested on: hepatocytes; assay: Metabolite analysis in hepatocytes by high-resolution mass spectrometry; type: in vitro ADME; details: preliminary studies
Description: It remains unclear whether halogen substitutions at the indole ring impact the activity and metabolic profiles of the indole compounds described herein.

Compound	inhibition in vivo at 160 mg/kg [1]	primary metabolites of the indole ring identified [2]
COC(=O)c1csc(C(=O)c2c[nH]c3ccccc23)n1 [ARI-001, ITE]	75.1%	
CCC(=O)c1csc(C(=O)c2c[nH]c3ccc(F)cc23)n1 [ARI-087, 1-(2-(5-fluoro-1H-indole-3-carbonyl)thiazol-4-yl)propan-1-one]		fewer primary metabolites of the indole ring
CCC(=O)c1csc(C(=O)c2c[nH]c3cc(F)ccc23)n1 [ARI-143, 1-(2-(6-fluoro-1H-indole-3-carbonyl)thiazol-4-yl)propan-1-one]		fewer primary metabolites of the indole ring
